Measured values: the METLIN SMRT retention time set (Domingo-Almenara et al. 2019)
Blank lines part the entries; values can stand above or below the compound they belong to.

Assay: gradient 5% acetonitrile 3 min, to 50% in 2 min, to 85% in 15 min, held 3 min, 100 µL/min
Details: column: Zorbax Extend-C18 2.1 x 50 mm; eluents: water / acetonitrile, 0.1% formic acid
In short: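 Over 3 months, pure standards in mixtures of ~100 molecules were run by HPLC coupled to a quadrupole time-of-flight mass spectrometer in positive and negative ionization mode. The column was a Zorbax Extend-C18 (2.1 × 50 mm, 1.8 μm) at 100 μL/min, eluted with water and acetonitrile each holding 0.1% formic acid, with 40 μL dead and 900 μL dwell volumes. Retention time was determined from adduct peaks chosen by software and checked manually.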

SMILES: CCCCCNC(=O)c1sccc1S(=O)(=O)N(C)c1ccc(OCC)cc1
RP-LC retention time: 1190 s

SMILES: Cc1noc(C)c1S(=O)(=O)NCC1CCN(S(=O)(=O)C2CC2)CC1
RP-LC retention time: 709 s

SMILES: COCCN1C(=O)c2ccccc2C(C(=O)Nc2ccc(OC)cc2OC)C12CCCC2 (stereo not drawn)
RP-LC retention time: 871 s

SMILES: COc1ccc(Cn2nc3ccc(S(=O)(=O)N4CCCC4)cn3c2=O)cc1F
RP-LC retention time: 862 s

SMILES: COc1ccc(S(=O)(=O)NCc2ccc3c(c2)CCN3C(C)=O)cc1Cl
RP-LC retention time: 779 s

SMILES: Cc1cccc(CNC(=O)c2cc(N(C)C)n3nccc3n2)c1
RP-LC retention time: 840 s

SMILES: CCOC(=O)C1=C(C)N(CC(=O)N2CCCC2)c2ncnn2C1c1ccc(C)cc1 (stereo not drawn)
RP-LC retention time: 824 s

SMILES: Cc1cccc(NC(=O)Cn2cnc3nc(N4CCC(C(=O)NC5CC5)CC4)sc3c2=O)c1
RP-LC retention time: 658 s

SMILES: CN1C(=O)c2cc(C(=O)NCCN3CCCC3)nn2CC1(C)C(=O)NCc1ccc(F)cc1 (stereo not drawn)
RP-LC retention time: 580 s

SMILES: CCOC(=O)c1c(C)[nH]c(C(=O)CC(=O)OC)c1C
RP-LC retention time: 696 s

SMILES: CC(C)Oc1ccccc1CN1CC[C@@H]2CN(S(C)(=O)=O)[C@@H]2C1
RP-LC retention time: 638 s

SMILES: O=C(Cn1nc2c(c1NC(=O)c1c(F)cccc1Cl)CSC2)NCc1ccco1
RP-LC retention time: 750 s

SMILES: COc1ccccc1-c1nocc1CCC(=O)O
RP-LC retention time: 686 s

SMILES: CCc1cc(=O)n(CC(=O)Nc2ccccc2C)c(N2CCOCC2)n1
RP-LC retention time: 658 s

SMILES: Cc1cc(C)c(S(=O)(=O)N2CCc3c(c(-c4nnc(-c5ccccc5F)o4)nn3C)C2)c(C)c1
RP-LC retention time: 1070 s

SMILES: CN(C)C(=O)C1CN(C(=O)c2cccc(Br)c2)CC12CCOCC2 (stereo not drawn)
RP-LC retention time: 619 s

SMILES: COc1ccccc1C(=O)NCCc1c[nH]c2ccc(F)cc12
RP-LC retention time: 842 s

SMILES: O=C(NCc1ccccc1F)c1ccc(NC(=O)C2CC2)cc1N1CCOCC1
RP-LC retention time: 995 s

SMILES: O=C(NCCCN1CCCCCC1)c1ccc2c(c1)NC(=O)C1CCCCN21 (stereo not drawn)
RP-LC retention time: 609 s

SMILES: CCOc1cccc(CNC(=O)c2nnc(-c3ccc(S(=O)(=O)N(C)C)cc3)o2)c1
RP-LC retention time: 893 s

SMILES: CCOC(=O)CCNC(=O)N1CCCC(Cn2cnc3cccnc32)C1 (stereo not drawn)
RP-LC retention time: 604 s

SMILES: COC(=O)Nc1ccc(CC(=O)NCc2cccs2)cc1
RP-LC retention time: 662 s

SMILES: O=C1NCCCn2cc(S(=O)(=O)Nc3ccc(Cl)cc3F)cc21
RP-LC retention time: 678 s

SMILES: O=S(=O)(Nc1ccc(F)cc1F)c1c[nH]c2ncccc12
RP-LC retention time: 722 s

SMILES: O=S(=O)(Cc1ccc(Cl)cc1)N1CCC(CN2CCCCCC2)CC1
RP-LC retention time: 683 s

SMILES: CCCS(=O)(=O)N1CCCC(c2nc(C(C)C)no2)CCNC(=O)CC1 (stereo not drawn)
RP-LC retention time: 720 s

SMILES: COc1cccc2cc(-c3nnc(NC(=O)c4ccc([N+](=O)[O-])s4)o3)oc12
RP-LC retention time: 965 s

SMILES: COc1cccc(CNC(=O)CN2C(=O)NC(c3ccccc3Cl)C3=C2COC3=O)c1OC (stereo not drawn)
RP-LC retention time: 739 s

SMILES: CCOC(=O)c1nc(NCC2CCN(Cc3ccccc3C)CC2)c2c(C)noc2n1
RP-LC retention time: 738 s

SMILES: CCCN1CCN(C(=O)CCCn2c3ccccc3c3cnn(C)c(=O)c32)CC1
RP-LC retention time: 600 s

SMILES: CCN(CC)c1ncc2c(n1)CCC(C(=O)NCc1nc3ccccc3n1C)C2 (stereo not drawn)
RP-LC retention time: 537 s

SMILES: COc1ccc(C(C)(C)C)cc1S(=O)(=O)Nc1ccc(-c2cn3ccc(C)nc3n2)cc1
RP-LC retention time: 758 s

SMILES: CC(=O)Nc1nnc(SCc2nnc(-c3ccc4c(c3)OCO4)o2)s1
RP-LC retention time: 678 s

SMILES: COc1ccc2[nH]cc(CCN3CC(C(=O)Nc4ccc(C)cc4C)CC3=O)c2c1 (stereo not drawn)
RP-LC retention time: 775 s

SMILES: CCn1cc(CCNC(=O)c2ccc(Br)cc2)c2cccnc21
RP-LC retention time: 766 s

SMILES: OCCn1cc(-c2ccc3c(c2)CC/C3=N\O)c(-c2ccncc2)n1
RP-LC retention time: 603 s

SMILES: Cc1ccnc(NC(=O)C2CCCN(S(=O)(=O)c3cc(-c4noc(C5CCC5)n4)cs3)C2)c1 (stereo not drawn)
RP-LC retention time: 891 s

SMILES: CN1C(=O)C2(CCN(C(=O)Nc3ccc4c(c3)OCCO4)C2)c2ccccc21 (stereo not drawn)
RP-LC retention time: 748 s

SMILES: CCn1ccc2c(cc(C(=O)Nc3cccc(OC)c3)n2C)c1=O
RP-LC retention time: 748 s

SMILES: CC(C)c1ccc(C(=O)N2CCC(COc3ccc(C(=O)NC4CC4)cc3)CC2)cc1
RP-LC retention time: 947 s

SMILES: COc1ccc(-c2nc(COc3cc(C)c4c(C)nn(C)c4n3)c(C)o2)cc1
RP-LC retention time: 1120 s

SMILES: O=C(Nc1ccc2c(c1)OCCO2)c1coc(NC(=O)C2CC2)n1
RP-LC retention time: 643 s

SMILES: COc1cc(NC(=O)NC2CCN(c3ccccc3)C2=O)cc(OC)c1 (stereo not drawn)
RP-LC retention time: 768 s

SMILES: Cn1c(=O)c2ccn(CC(=O)Nc3ccc(F)cc3Cl)c2n(C)c1=O
RP-LC retention time: 695 s

SMILES: CN(CC(=O)N1CCN(C2CCCCC2)CC1)S(=O)(=O)c1ccc2c(c1)CCCC(=O)N2
RP-LC retention time: 602 s

SMILES: CCOC(=O)c1cnc2nc(C)ccc2c1Nc1ccc(F)c(Cl)c1
RP-LC retention time: 764 s

SMILES: CSc1ccc(-c2nc3nc(C)cc(C)n3c2Nc2ccc3c(c2)OCCO3)cc1
RP-LC retention time: 724 s

SMILES: CCn1cc(-c2nc(C(=O)Nc3ccc(F)c(F)c3)cs2)c2cccnc21
RP-LC retention time: 940 s

SMILES: OC[C@H]1O[C@@H](n2cnc3c(NC4CCCCC4)ncnc32)[C@H](O)[C@@H]1O
RP-LC retention time: 656 s

SMILES: Cc1cc(C(=O)Nc2c(F)c(F)c(F)c(F)c2F)n(-c2ccccc2)n1
RP-LC retention time: 917 s

SMILES: Cc1cccc(-c2nc(N)n(C(=O)C(C)C)n2)c1
RP-LC retention time: 970 s

SMILES: C=CCc1cc(OC)ccc1OCC(O)CN1CCN(c2ccc(OC)cc2)CC1 (stereo not drawn)
RP-LC retention time: 597 s

SMILES: CCOCc1nc(C2CCCN2S(=O)(=O)c2c(C)nn(C)c2C)no1 (stereo not drawn)
RP-LC retention time: 691 s

SMILES: CCOc1coc(C(=O)NCc2ccccc2OC)cc1=O
RP-LC retention time: 644 s

SMILES: COc1ccc(NC(=O)C2CCN(c3cc(N4CCCC4)ncn3)CC2)cc1OC
RP-LC retention time: 616 s

SMILES: CCNC(=O)N1C[C@@H]2CCCN3CCC[C@@H]([C@H]23)[C@H]1CCCC(=O)NCC1CC1
RP-LC retention time: 569 s

SMILES: CCN(CC)CCNC(=O)C(C)n1c2ccccc2c2cnn(C)c(=O)c21 (stereo not drawn)
RP-LC retention time: 609 s

Results, then the compound that gave them:

RP-LC retention time: 762 s
SMILES: O=C(COc1ccc2ccccc2c1)NCC1CCN(c2ncccn2)CC1

RP-LC retention time: 818 s
SMILES: O=C(Cn1c(=O)n(Cc2ccc3c(c2)OCO3)c(=O)c2ncccc21)c1ccccc1

RP-LC retention time: 682 s
SMILES: COc1ccc(-c2nnc(-c3cc(S(=O)(=O)N4CCN(C)CC4)ccc3Cl)o2)cc1

RP-LC retention time: 1110 s
SMILES: COc1ccc(-c2nnc(Cc3nc(-c4ccc(C)c(C)c4)no3)o2)cc1

RP-LC retention time: 893 s
SMILES: O=C(c1ccco1)N1CCN(c2ccc(-c3nc(-c4cccc(F)c4)no3)cn2)CC1

RP-LC retention time: 604 s
SMILES: O=C(c1ccc(-c2cccs2)nc1)N1CCN(c2ccccn2)CC1

RP-LC retention time: 751 s
SMILES: CN1c2ccc(F)cc2C(=O)NC12CCN(C(=O)c1ccccc1Cl)CC2

RP-LC retention time: 1020 s
SMILES: CC(C)Oc1ccc(-c2noc(CN3N=NC4C(=O)N(c5ccccc5)C(=O)C43)n2)cc1 (stereo not drawn)

RP-LC retention time: 910 s
SMILES: Cc1ccc(-c2nocc2CCC(=O)NCc2ccccc2)cc1

RP-LC retention time: 867 s
SMILES: CN(C)c1cccc(C(=O)N2CCC3(CC2)N=C(c2ccc(Br)cc2)NO3)c1

RP-LC retention time: 674 s
SMILES: O=C(Nc1c(-c2ccc(F)cc2)nc2ccccn12)c1cccc(F)c1

RP-LC retention time: 546 s
SMILES: Cc1ccccc1-c1ccc(N2CCC(C(=O)Nc3cccnc3)CC2)nn1

RP-LC retention time: 937 s
SMILES: O=C(c1ccc(F)c(F)c1)N1CCN(C(=O)c2nnn3c2COC(c2ccc(Cl)cc2)C3)CC1 (stereo not drawn)

RP-LC retention time: 915 s
SMILES: COc1ccc(N2CC(c3nc(-c4ccc5c(c4)oc(=O)n5C(C)C)no3)CC2=O)cc1 (stereo not drawn)

RP-LC retention time: 868 s
SMILES: O=C(NCCc1csc(-c2ccc(F)cc2)n1)c1ccco1

RP-LC retention time: 903 s
SMILES: CC(Oc1ccccc1)C(=O)N(C)CCc1noc(-c2ccccc2)n1 (stereo not drawn)

RP-LC retention time: 1100 s
SMILES: Cc1ccccc1Nc1c(-c2cccc(Br)c2)nc2ccc(Cl)cn12

RP-LC retention time: 566 s
SMILES: CC1CCN(c2cc(-c3noc(C(=O)NCCN(C)C)n3)ccn2)CC1

RP-LC retention time: 677 s
SMILES: Cc1ccc(-c2noc(CCN3CCN(c4ncccn4)CC3)n2)cc1

RP-LC retention time: 920 s
SMILES: CC(=O)Nc1cccc2c(C(=O)N3CCN(c4cccc(Cl)c4)CC3)ccnc12

RP-LC retention time: 728 s
SMILES: CCn1cnc2ccc(-c3noc(Cc4ccc(OC)cc4)n3)cc21

RP-LC retention time: 867 s
SMILES: CCc1nnc(-c2cn(CC(=O)NCc3cccc(Br)c3)c3ccccc23)o1

RP-LC retention time: 671 s
SMILES: CCn1ccc2cc(S(=O)(=O)N3CCC(C(=O)N4CCN(c5ccccc5)CC4)CC3)ccc21

RP-LC retention time: 538 s
SMILES: Cc1cc(N2CCN(C)CC2)nc2ccc(NC(=S)NCCN3CCc4ccccc4C3)cc12

RP-LC retention time: 590 s
SMILES: O=C(Nc1ccc2c(c1)OCCO2)N1CCCn2nc(-c3ccncc3)cc2C1

RP-LC retention time: 791 s
SMILES: CCN1c2cc(F)ccc2C(=O)NC12CCN(C(=O)c1cccc(F)c1)CC2

RP-LC retention time: 1050 s
SMILES: CCOc1cccc(C2c3[nH]c4ccccc4c3CCN2C(=O)c2ccnn2C)c1 (stereo not drawn)

RP-LC retention time: 610 s
SMILES: COc1ccc(NC(=O)c2nnc(COCC(=O)N3CCN(c4ccccn4)CC3)s2)cc1

RP-LC retention time: 1100 s
SMILES: c1ccc(-n2ncc3c(Nc4ccc5c(c4)OCO5)nc(N4CCOCC4)nc32)cc1

RP-LC retention time: 581 s
SMILES: CCN1CCN(CCCNC(=O)c2cc(-c3cccnc3)nc3ccc(Br)cc23)CC1

RP-LC retention time: 915 s
SMILES: Cc1nn(-c2ccccc2)c2c1N(CC(=O)N1CCN(c3ccc(F)cc3)CC1)C(=O)CS2
